Earlier results on two compounds are cited in patent US20100249179A1, “Farnesoid X Receptor Agonists” (SMITHKLINE BEECHAM CORPORATION, priority 2007, published 2010).

The subject of data set [1] is rodent models of hepatic fibrosis. The note with it: multiple rodent models; cited from earlier work.
Another data set relates to cultured HSCs. Conditions: cited from earlier work.
Data set [2] has as its system C57BL mice on high-fat diet. Conditions: cited from earlier work.
The subject of data set [3] is mice on a lithogenic diet. The note with it: cited from earlier work.
The test system of the next data set is male ob/ob mice. Conditions: GW4064 30 mg/kg intraperitoneally; cited from earlier work.
For the next data set, the system named is bile duct-ligated mouse. The note with it: bile duct-ligated mouse model; cited from earlier work.
The test system of the next data set is diabetic db/db mice. Conditions: cited from earlier work.
Setting [4] is: GW4064 100 mg/kg twice a day orally, high-fat diet mice, 100 mg/kg.
[5] abbreviates: GW4064 100 mg/kg twice a day orally, high-fat diet mice.
Setting [6] is: oral GW4064 30 mg/kg bid, db/db mice.

Each structure is given as a SMILES string. “Also recorded” adds a separate entry of the source.

As for `CC[C@H]1[C@@H](O)[C@@H]2[C@H](CC[C@]3(C)[C@@H]([C@H](C)CCC(=O)O)CC[C@@H]23)[C@@]2(C)CC[C@@H](O)C[C@@H]12` [Example 6EtCDCA, 6-ethyl-chenodeoxycholic acid], in data set [1], the hepatic fibrosis entry is “prevent development and promote resolution”. The “expression of fibrotic markers such as α-smooth muscle actin and α1(I) collagen” value with cultured HSCs is “decreased”.
As for `CC(C)c1onc(-c2c(Cl)cccc2Cl)c1COc1ccc(/C=C/c2cccc(C(=O)O)c2)c(Cl)c1` [GW4064], in data set [2] (GW4064 100 mg/kg twice a day orally, high-fat diet mice, GTT, 100 mg/kg), the glucose tolerance entry is listed as “corrected glucose intolerance; also recorded: improve”. In addition, in data set [2] (setting [4]), the serum glucose entry is listed as “decreased”, the serum insulin result is “decreased” and the serum triglyceride entry is listed as “decreased”. In data set [2] (setting [5]), the “high-fat diet induced body weight gain” value is “reduced” and the liver triglyceride content entry is recorded as “reduced”. In addition, in data set [2] (mice on high-fat diet), the body fat mass result is given as “decrease”, the body weight entry was “decrease” and the total cholesterol entry is “decrease”. The “formation of cholesterol crystals in the bile” value in data set [3] is given as “prevented”. In the data set on male ob/ob mice, the body weight result is listed as “did not alter”, the fasting blood glucose result is “no effect”, the food intake result is “did not alter” and the glucose tolerance result was “improved”. Moreover, in the data set with male ob/ob mice, the insulin concentration result is reported as “decreased” and the insulin sensitivity result was “enhanced”. Also, in the data set with bile duct-ligated mouse, the bacterial overgrowth entry is “decreased”, the mucosal barrier entry was “improved” and the “translocation of bacteria to mesenteric lymph nodes” value was “decreased”. In the data set on diabetic db/db mice (db/db mice), the “glycogen storage in the liver” value is “enhanced” and the “insulin signalling in the liver” value is reported as “enhanced”. Moreover, in the data set with diabetic db/db mice (diabetic db/db mice), the hyperglycemia result is given as “significantly improved” and the hyperlipidemia entry is on record as “significantly improved”. Further, in the data set with diabetic db/db mice (setting [6]), the NEFA entry is listed as “decreased”, the blood glucose result is recorded as “decreased”, the “serum β-hydroxybutyrate” value is given as “decreased” and the total cholesterol result is on record as “decreased”. For the same compound, the triglyceride result in the data set with diabetic db/db mice (setting [6]) is on record as “decreased”.
